Data on twelve compounds can be found in ChEMBL document CHEMBL4406823 (Eur J Med Chem, 2019).

One assay deals with HT-29. In words: cells. The conditions noted are these: Homo sapiens, HT-29, 72 h.
A further assay concerns MDA-MB-231. In words: Antiproliferative activity against human MDA-MB-231 cells assessed as inhibition of cell proliferation incubated for 72 hrs by MTT assay. Type of assay: functional, cell-based. The conditions noted are these: MDA-MB-231, 72 h. On the technique in general: Formazan colour is commonly taken as a measure of viable cells.
For another assay, the system named is MCF7. The assay is described as follows: cells. Particulars: Homo sapiens, MCF7, 72 h.
The subject of the next assay is HeLa. In words: cells. Particulars: Homo sapiens, 72 h.
The next assay deals with SEM cells. In words: Antiproliferative activity against human SEM cells assessed as inhibition of cell proliferation incubated for 72 hrs by MTT assay. It is filed as functional, cell-based.
The next assay relates to HL-60. In words: Antiproliferative activity against human HL60 cells assessed as inhibition of cell proliferation incubated for 72 hrs by MTT assay. The conditions noted are these: HL-60, 72 h. Type of assay: functional, cell-based.
A further assay concerns the target Tubulin (Bos taurus) (UniProt Q6B856+Q862L2+Q862F3). In words: Displacement of [3H]-colchicine from bovine brain tubulin at 5 uM incubated for 1 hr by relative to control. A general note: Loss of bound radioactivity is the signal in a displacement assay; it reports binding, not function.
In a further assay the target is Tubulin (Bos taurus, UniProt Q6B856+Q862L2+Q862F3). In words: Inhibition of bovine brain tubulin assembly using GTP as substrate incubated for 20 mins by spectrophotometric method.

Structures are written as SMILES.

Description for HT-29: Antiproliferative activity against human HT-29 cells assessed as inhibition of cell proliferation incubated for 72 hrs by MTT assay
Description for HeLa: Antiproliferative activity against human HeLa cells assessed as inhibition of cell proliferation incubated for 72 hrs by MTT assay
Description for MCF7: Antiproliferative activity against human MCF7 cells assessed as inhibition of cell proliferation incubated for 72 hrs by MTT assay

Regarding `COc1cc(-c2n[nH]cc2-c2cc(C)c(OC)c(C)c2)cc(OC)c1OC`, the IC50 (as a rule, the concentration that gives 50% inhibition) in the assay with HT-29 was above 10 µM; with MDA-MB-231 it was above 10 µM; in the assay with MCF7, above 10 µM; in the assay on HeLa, above 10 µM; in the assay on SEM cells, 3.34 µM; in the assay on HL-60 it was above 10 µM.

For `CCc1ccc(-c2c[nH]nc2-c2cc(OC)c(OC)c(OC)c2)cc1`, the IC50 with HT-29 is 0.0413 µM; in the assay on MDA-MB-231, 3.27 µM; in the assay with MCF7, above 10 µM; with HeLa it was 0.0335 µM; in the assay on SEM cells it was 0.0187 µM; against Tubulin it was 0.52 µM. For the same compound, the IC50 in the assay with HL-60 was determined as 0.0233 µM. Moreover, the inhibition – broadly, how much of the control response was suppressed – at Tubulin (Bos taurus) stood at 85%.

For `COc1ccc(-c2c[nH]nc2-c2cc(OC)c(OC)c(OC)c2)cc1C`, the IC50 was 0.0373 µM in the assay with HT-29; 2.68 µM with MDA-MB-231; above 10 µM in the assay with MCF7; 0.0329 µM with HeLa; 0.0172 µM in the assay with SEM cells; 0.44 µM against Tubulin. Besides, the IC50 in the assay on HL-60 is 0.0177 µM. This compound also returned an inhibition on Tubulin (Bos taurus) of 81%.

In the case of `COc1cc(-c2n[nH]cc2-c2ccc(SC)cc2)cc(OC)c1OC`, the IC50 in the assay with HT-29 is 0.0513 µM; in the assay with MDA-MB-231 it was 3.65 µM; with MCF7 it was above 10 µM; in the assay with HeLa it was 0.0287 µM; in the assay with SEM cells it was 0.0301 µM; on Tubulin it was 0.57 µM. Moreover, the IC50 with HL-60 was 0.0409 µM. This compound gave an inhibition on Tubulin (Bos taurus) of 85%.

For `COc1cc(-c2c[nH]nc2-c2cc(OC)c(OC)c(OC)c2)ccc1C`, the IC50 was 0.316 µM in the assay with HT-29; 5.28 µM in the assay on MDA-MB-231; above 10 µM with MCF7; 0.287 µM with HeLa; 0.305 µM in the assay with SEM cells; 0.16 µM with HL-60.

`CCCc1ccc(-c2c[nH]nc2-c2cc(OC)c(OC)c(OC)c2)cc1`: the IC50 with HT-29 worked out at 0.541 µM; with MDA-MB-231 it was 1.55 µM; in the assay on MCF7 it was 2.79 µM; with HeLa, 0.361 µM; in the assay on SEM cells, 0.406 µM; in the assay on HL-60, 0.553 µM.

`COc1ccc(-c2c[nH]nc2-c2cc(OC)c(OC)c(OC)c2)cc1Cl`: the 50% inhibitory concentration (IC50) with HT-29 amounted to 0.0002 µM; with MDA-MB-231 it was 0.0215 µM; in the assay with MCF7, 1.39 µM; with HeLa it was 0.0014 µM; in the assay on SEM cells, 0.0024 µM; at Tubulin, 0.52 µM. For the same compound, the IC50 in the assay on HL-60 worked out at 0.017 µM. The inhibition on Tubulin (Bos taurus) was 85%.

`CCSc1ccc(-c2c[nH]nc2-c2cc(OC)c(OC)c(OC)c2)cc1`: the IC50 in the assay on HT-29 was 0.0054 µM; with MDA-MB-231, 0.0314 µM; with MCF7, 0.492 µM; in the assay with HeLa, 0.0125 µM; in the assay on SEM cells, 0.0139 µM; at Tubulin it was 0.48 µM. The IC50 in the assay on HL-60 is 0.0297 µM. For the same compound, at Tubulin (Bos taurus), the inhibition is 85%.

Take `COc1ccc(-c2c[nH]nc2-c2cc(OC)c(OC)c(OC)c2)cc1`: the IC50 in the assay with HT-29 was determined as 0.0105 µM; with MDA-MB-231, 0.0086 µM; in the assay with MCF7 it was 0.0166 µM; in the assay with HeLa it was 0.006 µM; with SEM cells it was 0.001 µM; at Tubulin it was 0.37 µM. The IC50 in the assay on HL-60 was found to be 0.0044 µM. This compound showed an inhibition at Tubulin (Bos taurus) of 86%.

As to `COc1cc(-c2n[nH]cc2-c2ccc(C(F)(F)F)cc2)cc(OC)c1OC`, the IC50 stood at 0.0674 µM in the assay on HT-29; 0.523 µM in the assay with MDA-MB-231; 4.38 µM in the assay with MCF7; 0.227 µM in the assay with HeLa; 0.187 µM in the assay on SEM cells; 0.179 µM with HL-60.

Turning to `COc1ccc(/C=C\c2cc(OC)c(OC)c(OC)c2)cc1O` [COMBRETASTATIN A4], the results for the IC50 in the assay on MDA-MB-231 and with SEM cells were 0.0045 µM and 0.0051 µM, respectively.

On to `COc1cc(-c2n[nH]cc2-c2ccc(OC(F)(F)F)cc2)cc(OC)c1OC`, for which the IC50 with HT-29 is 2.42 µM; with MDA-MB-231 it was 5.74 µM; in the assay with MCF7 it was above 10 µM; in the assay with HeLa it was 3.38 µM; with SEM cells, 2.47 µM; with HL-60 it was 1.75 µM.
